Read-outs that look alike come from different tables or passages of the source.
Legend:
[1] = tested on: MV4-11 leukemia cells; assay: Antiproliferation assay (XTT), MV4-11; format: cell-based; conditions: Homo sapiens, MV4-11, 360 h; 15-day treatment; MLL-rearranged leukemia; read-out: MV4-11 EC50 (antiproliferative)
Protocol: Next, these three compounds were tested for their cellular activity against proliferation of MV4-11 leukemia cells bearing MLL-AF4 fusion oncogene.
(§1) These compounds were incubated with a panel of six human leukemia and solid tumor cell lines, including two MLL-rearranged leukemia cells MV4-11 and Molm-13 containing fusion oncogenes MLL-AF4 and -AF9, respectively. […] Also included in the studies are breast cancer MCF-7 and prostate cancer LNCaP cells.
(§2) Proliferation inhibition assay for suspension leukemia cells was performed using an XTT assay kit (Roche) with our previously described method. Proliferation inhibition assay for solid tumor cell lines MCF-7 and LNCaP was performed using our previous described MTT assay. The antiproliferation EC50 values were determined by Prism, and the reported results were the mean values of at least three independent experiments.

[2] = tested on: NB4 leukemia cells; assay: Antiproliferation assay (XTT), NB4; format: cell-based; conditions: Homo sapiens, 360 h; 15-day treatment; non-MLL leukemia cells; read-out: NB4 EC50 (antiproliferative)
Protocol: as §1, with “We next examined the spectrum of antitumor activity for compounds 1–4. These” for “These”, “cells. […]” for “cells.”
as §2

[3] = target: T1, recombinant human LSD1 (Homo sapiens, UniProt O60341); assay: LSD1 enzyme inhibition assay (HRP/Amplex red); format: biochemical; conditions: for Selectivity index for LSD1: LSD1 versus MAO-A and -B
T1 construct: Human LSD1 catalytic domain (172-833) was cloned; made in house; host or cells: E. coli BL21-CodonPlus (Agilent)
Protocol: The LSD1 inhibition assay was performed with the reaction rate (i.e., amount of the product H2O2, Additional file 1: Figure S2) being quantitatively determined by adding horseradish peroxidase (HRP) and a HRP fluorescence substrate Amplex red.
Human LSD1 catalytic domain (172-833) was cloned and inserted into pGEX-KG vector. The correctness of insert was verified by sequencing. BL21-CodonPlus strain (Agilent) was transformed with the pGEX-KG-LSD1 plasmid and cultured at 37 °C in LB medium containing ampicillin (50 μg/mL) and chloramphenicol (34 μg/mL). Upon reaching an optical density of ~0.9 at 600 nm, LSD1 expression was induced by adding 0.2 mM isopropylthiogalactoside at 25 °C for 20 h. Cells were harvested, lysed, and centrifuged at 20,000 rpm for 20 min, and the supernatant was collected and subjected to an affinity column chromatography using the glutathione sepharose resin.
The inhibition assay for the recombinant LSD1 was performed using a published protocol, with the reaction rate (i.e., amount of the product H2O2) being quantitatively determined by adding HRP and a HRP fluorescence substrate Amplex red. […] The total volume of the reaction mixture is 60 μL. After 20 min, 60-μL solution containing HRP (0.01 unit) and Amplex red (80 μM) was added and the fluorescence of each well was determined using a Beckman DTX-880 microplate reader (excitation at 535 and emission at 595 nm). Data were imported into Prism 5.0 (GraphPad), and the IC50 values were calculated by using the sigmoidal dose response curve fitting in the software. The reported IC50s were the mean values of at least three independent experiments.

[4] = tested on: human primary leukemia cells from an AML patient with MLL-ENL fusion oncogene; assay: Colony-forming assay; format: cell-based; conditions: 336 h, colonies counted after 14 days, read-out: colony-forming ability EC50
Protocol: Colony-forming assay using non-serum culture media represents a useful method to assess self-renewal capacity of stem-like cancer cells. The number of cell colonies formed in the assay reflects the proportion of stem-like cells in a given number of cancer cells. […] Human MLL-rearranged AML samples will be obtained from the Children’s Oncology Group (COG) Biopathology Center, in accordance with the IRB-approved protocol H-24170. The colony-forming assay was performed according to our previously published method. After 14 days, the colony number of each culture dish was counted and imported into Prism 5.0 and EC50 values were determined by using the sigmoidal dose response curve fitting in the software.

[5] = tested on: Molm-13 leukemia cells; assay: Antiproliferation assay (XTT), Molm-13; format: cell-based; conditions: Homo sapiens, MOLM-13, 360 h; 15-day treatment; MLL-rearranged leukemia; read-out: Molm-13 EC50 (antiproliferative)
Protocol: as §1, §2

[6] = tested on: breast cancer MCF-7 cells; assay: Antiproliferation assay (MTT), MCF-7; format: cell-based; conditions: Homo sapiens, MCF7, 360 h, 15-day treatment, read-out: MCF-7 EC50 (antiproliferative)
Protocol: as §1, §2

[7] = target: T2, human MAO-A (Homo sapiens, UniProt P21397); assay: MAO-A inhibition (MAO-Glo); format: biochemical; conditions: read-out: MAO-A IC50
T2 construct: purchased Sigma
T2 sequence (P21397 1-527): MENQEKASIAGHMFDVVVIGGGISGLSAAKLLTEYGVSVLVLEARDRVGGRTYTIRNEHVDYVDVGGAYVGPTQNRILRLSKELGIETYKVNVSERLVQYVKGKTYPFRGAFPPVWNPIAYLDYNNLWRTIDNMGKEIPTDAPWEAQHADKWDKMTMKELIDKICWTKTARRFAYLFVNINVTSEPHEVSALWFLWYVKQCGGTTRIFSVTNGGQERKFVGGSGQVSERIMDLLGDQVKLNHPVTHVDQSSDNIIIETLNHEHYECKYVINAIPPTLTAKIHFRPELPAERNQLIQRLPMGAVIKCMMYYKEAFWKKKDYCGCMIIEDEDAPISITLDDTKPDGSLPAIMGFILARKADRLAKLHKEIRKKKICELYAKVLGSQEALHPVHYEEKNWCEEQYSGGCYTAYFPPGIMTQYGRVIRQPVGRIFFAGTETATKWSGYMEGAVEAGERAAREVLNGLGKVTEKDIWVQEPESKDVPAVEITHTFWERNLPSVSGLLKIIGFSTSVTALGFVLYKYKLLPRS
Protocol: The cyclopropylamine LSD1 inhibitors were generally derived from MAO-A/-B inhibitor tranylcypromine, an antidepression drug. Because MAO-A and -B play important roles in the degradation of neurotransmitters (e.g., serotonin and dopamine) in the central nervous system, selective inhibition for LSD1 is highly desirable.
(§3) Recombinant human MAO-A and -B were purchased from Sigma. The inhibitory activity was determined using MAO-Glo assay kit (Promega). In brief, following the manufacturer’s protocol, assays were performed in 384-well white plates (Corning) using MAO-A or -B (100 nM) with a final volume of 20 μL. Reactions were quenched after 60 min by adding reconstituted luciferin detection reagent (20 μL/well); 20 min after addition of the detection reagent, the luminescence of each well was measured using Beckman DTX-880 microplate reader. IC50 calculation was similar to that of LSD1.

[8] = tested on: U937 leukemia cells; assay: Antiproliferation assay (XTT), U937; format: cell-based; conditions: Homo sapiens, U-937, 360 h; 15-day treatment; non-MLL leukemia cells; read-out: U937 EC50 (antiproliferative)
Protocol: as §1, with “We next examined the spectrum of antitumor activity for compounds 1–4. These” for “These”, “cells. […]” for “cells.”
as §2

[9] = tested on: prostate cancer LNCaP cells; assay: Antiproliferation assay (MTT), LNCaP; format: cell-based; conditions: Homo sapiens, 360 h, 15-day treatment, read-out: LNCaP EC50 (antiproliferative)
Protocol: as §1, with “We next examined the spectrum of antitumor activity for compounds 1–4. These” for “These”, “cells. […]” for “cells.”
as §2

[10] = target: T3, human MAO-B (Homo sapiens, UniProt P27338); assay: MAO-B inhibition (MAO-Glo); format: biochemical
T3 construct: purchased Sigma
T3 sequence (P27338 1-520): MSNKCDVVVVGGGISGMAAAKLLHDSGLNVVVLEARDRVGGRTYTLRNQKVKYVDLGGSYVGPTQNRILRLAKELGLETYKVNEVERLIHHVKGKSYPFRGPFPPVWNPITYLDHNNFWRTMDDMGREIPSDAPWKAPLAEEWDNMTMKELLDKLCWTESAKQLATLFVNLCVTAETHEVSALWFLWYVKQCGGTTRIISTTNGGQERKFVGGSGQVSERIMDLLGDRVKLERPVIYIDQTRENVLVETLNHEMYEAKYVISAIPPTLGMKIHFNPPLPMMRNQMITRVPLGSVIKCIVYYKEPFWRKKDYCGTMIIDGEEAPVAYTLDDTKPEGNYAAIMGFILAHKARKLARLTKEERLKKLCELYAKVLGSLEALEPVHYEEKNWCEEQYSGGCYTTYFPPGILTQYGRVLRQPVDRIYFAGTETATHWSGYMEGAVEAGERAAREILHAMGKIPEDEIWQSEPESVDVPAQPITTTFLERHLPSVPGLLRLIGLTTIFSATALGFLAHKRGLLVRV
Protocol: Because MAO-A and -B play important roles in the degradation of neurotransmitters (e.g., serotonin and dopamine) in the central nervous system, selective inhibition for LSD1 is highly desirable.
as §3

[11] = tested on: Molm-13 leukemia cells; parameters: method as in PMID 22924785; conditions: read-out: Molm-13 proliferation EC50; cited from earlier work
[12] = tested on: H3K79 methylation in MV4-11 cells; parameters: method as in PMID 23795283; conditions: read-out: IC50 for inhibition of H3K79 methylation; cited from earlier work
[13] = tested on: MV4-11 leukemia cells; parameters: method as in PMID 22924785; conditions: read-out: MV4-11 proliferation EC50; cited from earlier work

EC50 [1] [µM] | EC50 [2] [µM] | IC50 [3] [µM] | selectivity for LSD1 inhibition over MAO-A and -B [3] [fold] | Selectivity index for LSD1 [3] | EC50 [4] [µM] | EC50 [5] [µM] | EC50 [6] [µM] | IC50 [7] [µM] | EC50 [8] [µM] | EC50 [9] [µM] | IC50 [10] [µM] | fold less potent than compound 2 against LSD1 [3] | SMILES | EC50 [11] [µM] | IC50 [12] [µM] | EC50 [13] [µM]
0.02 | > 50 | 0.035 | > 200 | >208 | 0.48 | 0.18 | 13.5 | 7.3 | > 50 | 29.9 | 16.3 |  | CN1CCN(C(=O)CNC2CC2c2ccc(Br)cc2)CC1 (centres unmarked) [Compound 3] |  |  | 
 |  |  |  |  |  |  |  |  |  |  |  |  | CC(C)N(CCCNC(=O)Nc1ccc(C(C)(C)C)cc1)CC1OC(n2cnc3c(N)ncnc32)C(O)C1O (centres unmarked) [SYC-522] | ~7 | ~0.2 | ~4
1.4 | > 50 | 5.3 |  | <0.58 |  | 12 | > 50 | 0.42 | 17.5 | > 50 | 3.1 | ~ 70 fold | NC1CC1c1ccc(-c2ccc(F)nc2)cc1 (centres unmarked) [Compound 4] |  |  | 

Source: paper PMC4789278, “Pharmacological inhibition of LSD1 for the treatment of MLL-rearranged leukemia” (Journal of Hematology & Oncology, 2016)
